Data set [1] can be described thus: microbe, parasite or virus in culture. It counts as functional, Influenza A virus (A/ts1/1/A/FPV/Rostock/1934(H7N1)). Conditions: Influenza A virus, 36 h; call rule not given here.
A further data set is described as follows: in vitro. Conditions: chicken, primary chicken embryo cells.
Data set [2] has as its system Human immunodeficiency virus 1. The experiment in a line: Antiviral activity against HIV-1 zmb infected in human MT-4 cells after 72 hrs by MTT assay. It counts as functional, organism-based, MT4. Conditions: for EC50: mt4; for pEC50: Human immunodeficiency virus 1, zmb, MT4, 72 h, read-out: EC50.
Data set [3] in a line: Selectivity ratio of MTD for human MT-4 cells to EC50 for HIV-1 zmb infected in human MT-4 cells. Format: ADME, cell-based, MT4.

pEC50: −log10 of the molar value.

`C=C(C)[C@@H]1CC[C@]2(C(=O)O)CC[C@]3(C)[C@H](CC[C@@H]4[C@@]5(C)C/C(=N\O)[C@H](O)C(C)(C)[C@@H]5CC[C@]43C)[C@@H]12` had a pEC50 in data set [1] of 4.50. Further, in “in vitro”, the selectivity ratio amounted to 6.8. The matching figures for `C=C(C)[C@@H]1CC[C@]2(C(=O)OC)CC[C@]3(C)[C@H](CC[C@@H]4[C@@]5(C)C/C(=N\O)C(=O)C(C)(C)[C@@H]5CC[C@]43C)[C@@H]12`: 4.01 and 4.1. For the compound `C=C(C)[C@@H]1CC[C@]2(C(=O)O)CC[C@]3(C)[C@H](CC[C@@H]4[C@@](C)(CC#N)[C@H](C(C)(C)C=O)CC[C@]43C)[C@@H]12`, in data set [1], the pEC50 is 5.11. For the same compound, the selectivity ratio in the data set “in vitro” was determined as 3.5. `CC1(C)CC[C@]23CC[C@]4(C)[C@H](CC[C@@H]5[C@@]6(C)C/C(=N\O)C(=O)C(C)(C)[C@@H]6CC[C@]54C)[C@H]2[C@H]1OC3`: in data set [1], the pEC50 is less than 4.00.

For `CC1(C)C=C(C#N)[C@]2(C)[C@H]3CC[C@@H]4[C@H]5[C@H]6OC[C@@]5(CCC6(C)C)CC[C@@]4(C)[C@]3(C)CC[C@@H]12`, the EC50 result in data set [2] is listed as “Not Active”.

For `C=C(C)[C@@H]1CC[C@]2(C(=O)OC)CC[C@]3(C)[C@H](CC[C@@H]4[C@@]5(C)C(C#N)=C(N)C(C)(C)[C@@H]5CC[C@]43C)[C@@H]12`, the EC50 entry in data set [2] is reported as “Not Active”. Still for that read-out and setting: as for `CC1(C)CC[C@]23CC[C@]4(C)[C@H](CC[C@@H]5[C@@]6(C)C(C#N)=C(N)C(C)(C)[C@@H]6CC[C@]54C)[C@H]2[C@H]1OC3`, the entry is “Not Active”. In data set [1], `C/N=C/C(C)(C)[C@@H]1CC[C@]2(C)[C@H](C(=O)C=C3[C@@H]4C[C@@](C)(C(=O)OC)CC[C@]4(C)CC[C@]32C)[C@@]1(C)CC#N` showed a pEC50 of 4.28. Besides, the selectivity ratio in the data set “in vitro” was 15.1. On the same counts, the results for `COC(=O)[C@@]1(C)CCC2(C)CC[C@]3(C)C(=CC(=O)[C@@H]4[C@@]5(C)C/C(=N\O)[C@H](O)C(C)(C)[C@@H]5CC[C@]43C)[C@@H]2C1` (single isomer, unassigned) are 4.24 and 3.4. On to `C=C(C)[C@@H]1CC[C@]2(C(=O)O)CC[C@]3(C)[C@H](CC[C@@H]4[C@@](C)(CC#N)[C@H](C(C)(C)/C=N/O)CC[C@]43C)[C@@H]12`, for which the selectivity ratio in data set [3] amounted to 50; in “in vitro” it was 5.7. For the same compound, the pEC50 in data set [1] is 4.74; in data set [2], 7.22. The compound `C=C(C)[C@@H]1CC[C@]2(C(=O)OC)CC[C@]3(C)[C@H](CC[C@@H]4[C@@]5(C)C/C(=N\O)[C@H](O)C(C)(C)[C@@H]5CC[C@]43C)[C@@H]12` gave a pEC50 in data set [1] of less than 4.00. In data set [1], `CC(C)(/C=N/O)[C@@H]1CC[C@]2(C)[C@H](CC[C@@H]3[C@H]4[C@H]5OC[C@@]4(CCC5(C)C)CC[C@]32C)[C@@]1(C)CC#N` gave a pEC50 of 4.23. The selectivity ratio in the data set “in vitro” came to 7.2.

Regarding `COC(=O)[C@@]1(C)CCC2(C)CC[C@]3(C)C(=CC(=O)[C@@H]4[C@@](C)(CC#N)[C@H](C(C)(C)C=O)CC[C@]43C)[C@@H]2C1` (single isomer, unassigned), in data set [1], the pEC50 is 4.27. For the same compound, in the data set “in vitro”, the selectivity ratio came to 15.1.

Regarding `C=C(C)[C@@H]1CC[C@]2(C(=O)O)CC[C@]3(C)[C@H](CC[C@@H]4[C@@]5(C)C/C(=N\O)C(=O)C(C)(C)[C@@H]5CC[C@]43C)[C@@H]12`, the selectivity ratio in data set [3] is 51.5; in the data set “in vitro”, 64.1. Besides, the pEC50 in data set [1] was 4.89; in data set [2], 7.22. With `CC1(C)CC[C@]23CC[C@]4(C)[C@H](CC[C@@H]5[C@@]6(C)C/C(=N\O)[C@H](O)C(C)(C)[C@@H]6CC[C@]54C)[C@H]2[C@H]1OC3`, the pEC50 in data set [1] was less than 4.00.

Consider `C=C(C)[C@@H]1CC[C@]2(C(=O)OC)CC[C@]3(C)[C@H](CC[C@@H]4[C@@](C)(CC#N)[C@H](C(C)(C)/C=N/O)CC[C@]43C)[C@@H]12`, for which the pEC50 in data set [1] is 4.64. In “in vitro”, the selectivity ratio came out at 35.4. In addition, in data set [2], the EC50 result is recorded as “Not Active”. As to `COC(=O)[C@@]1(C)CCC2(C)CC[C@]3(C)C(=CC(=O)[C@@H]4[C@@]5(C)C/C(=N\O)C(=O)C(C)(C)[C@@H]5CC[C@]43C)[C@@H]2C1` (single isomer, unassigned), in data set [1], the pEC50 is less than 4.00.

With `C=C(C)[C@@H]1CC[C@]2(C(=O)OC)CC[C@]3(C)[C@H](CC[C@@H]4[C@@]5(C)C(C#N)=CC(C)(C)[C@@H]5CC[C@]43C)[C@@H]12`, in data set [3], the selectivity ratio turned out to be 3.2. In addition, the negative-log EC50 (pEC50) in data set [2] was 4.30.

(Values after ChEMBL document CHEMBL3297701, “Functionalization, cyclization and antiviral activity of A-secotriterpenoids” (Eur J Med Chem, 2014).)
